Experimental data published in US20090143279A1 (priority 2007, published 2009).
Like-named read-outs stand apart in the source and are kept apart here.

What was measured:
C2C12 myotubes = conditions: for Viability (composite Z-score): normalized score vs mock-treated (DMSO) wells
[1] = system: mitochondrial membrane potential; assay type: cell-based, mouse; conditions: for ΔΨm (composite Z-score): normalized score vs mock-treated (DMSO) wells
cytochrome c = assay type: cell-based, mouse; conditions: for cyt c (composite Z-score): normalized score vs mock-treated (DMSO) wells
Sequence of cytochrome c (P62897 whole entry): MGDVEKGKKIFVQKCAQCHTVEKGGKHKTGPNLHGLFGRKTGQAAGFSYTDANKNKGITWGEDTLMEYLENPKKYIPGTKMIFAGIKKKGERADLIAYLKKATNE

mtOXPHOS transcripts = assay type: cell-based, mouse; conditions: for mitoOX (composite Z-score): normalized score vs mock-treated (DMSO) wells
[2] = system: cellular dehydrogenase activity; conditions: for MTT (composite Z-score): normalized score vs mock-treated (DMSO) wells
nuOXPHOS transcripts = assay type: cell-based, mouse; conditions: for nucOX (composite Z-score): normalized score vs mock-treated (DMSO) wells
reactive oxygen species = assay type: cell-based, mouse; conditions: for ROS (composite Z-score): normalized score vs mock-treated (DMSO) wells
OXPHOS gene expression = assay type: cell-based, mouse; conditions: for GE-HTS (composite Z-score): normalized score vs mock-treated (DMSO) wells
[3] = composite Z-score vs mock-treated (DMSO) wells, Conc 20 μM
[4] = composite Z-score vs DMSO, Conc 20 μM
[5] = composite Z-score vs DMSO wells, Conc 20 μM
[6] = 20 μM, composite Z-score vs DMSO
[7] = normalized composite Z-score vs mock-treated (DMSO) wells, Conc 20 μM
[8] = composite Z-score vs mock-treated (DMSO) wells, concentration of each compound in μM
[9] = 12.18 μM, composite Z-score vs DMSO

## CCC(N)C(O)c1ccc(O)c(O)c1 (stereo not drawn) [ethylnorepinephrine]
C2C12 myotubes; Conc 20 μM
  Viability (composite Z-score): −0.508
[1]; Conc 20 μM
  ΔΨm (composite Z-score): −2.053
Cytochrome c; Conc 20 μM
  cyt c (composite Z-score): −0.439
mtOXPHOS transcripts; Conc 20 μM
  mitoOX (composite Z-score): −0.921
[2]; Conc 20 μM
  MTT (composite Z-score): −1.017
nuOXPHOS transcripts; Conc 20 μM
  nucOX (composite Z-score): −0.195
Reactive oxygen species; Conc 20 μM
  ROS (composite Z-score): −0.396
OXPHOS gene expression; Conc 20 μM
  GE-HTS (composite Z-score): −0.475

## CCOC(=O)c1c(C)cc(O)c(C=O)c1O [haematommic acid, ethyl ester]
C2C12 myotubes; [3]
  Viability: −0.557
[1]; [3]
  ΔΨm: −0.120
Cytochrome c; [3]
  cyt c: −0.104
mtOXPHOS transcripts; [3]
  mitoOX: 0.537
[2]; [3]
  MTT: −0.761
nuOXPHOS transcripts; [3]
  nucOX: 0.387
Reactive oxygen species; [3]
  ROS: 0.478
OXPHOS gene expression; [3]
  GE-HTS: 0.450

## CN[C@@H]1[C@@H](O[C@H]2O[C@H](CO)[C@@H](N)[C@H](O)[C@H]2O)OC2C[C@@H](N)[C@@H](O[C@H]3[C@H](O)[C@@H](O)[C@H](N)C[C@@H]3N)OC2[C@@H]1O (stereo partly drawn) [apramycin]
C2C12 myotubes; [4]
  Viability: −1.979
[1]; [4]
  ΔΨm: −0.407
Cytochrome c; [4]
  cyt c: 0.223
mtOXPHOS transcripts; [4]
  mitoOX: 0.494
[2]; [4]
  MTT: −0.808
nuOXPHOS transcripts; [4]
  nucOX: 0.413
Reactive oxygen species; [4]
  ROS: −0.105
OXPHOS gene expression; [4]
  GE-HTS: 0.477

## Cc1cc(NC(=O)C2=C(O)c3ccccc3S(=O)(=O)N2C)no1 [isoxicam]
C2C12 myotubes; [5]
  Viability: 0.010
[1]; [5]
  ΔΨm: −1.091
Cytochrome c
  cyt c: 0.177
Cytochrome c; [5]
  cyt c: −0.169
mtOXPHOS transcripts; [5]
  mitoOX: −0.770
[2]; [5]
  MTT: −0.152
nuOXPHOS transcripts; [5]
  nucOX: −0.221
Reactive oxygen species; [5]
  ROS: 0.030
OXPHOS gene expression; [5]
  GE-HTS: −0.423

## CC1(C)S[C@@H]2[C@H](NC(=O)COc3ccccc3)C(=O)N2[C@H]1C(=O)O [penicillin V]
C2C12 myotubes; [6]
  Viability: 0.062
[1]; [6]
  ΔΨm: −0.564
Cytochrome c; [6]
  cyt c: 0.258
mtOXPHOS transcripts; [6]
  mitoOX: −0.654
[2]; [6]
  MTT: −1.319
nuOXPHOS transcripts; [6]
  nucOX: −0.844
Reactive oxygen species; [6]
  ROS: 0.748
OXPHOS gene expression; [6]
  GE-HTS: −0.849

## 1,2alpha-epoxydeacetoxydihydrogedunin
C2C12 myotubes; [7]
  Viability: 0.074
[1]; [7]
  ΔΨm: 0.210
Cytochrome c; [7]
  cyt c: −0.224
mtOXPHOS transcripts; [7]
  mitoOX: −0.468
[2]; [7]
  MTT: −2.000
nuOXPHOS transcripts; [7]
  nucOX: −1.080
Reactive oxygen species; [7]
  ROS: 3.350
OXPHOS gene expression; [7]
  GE-HTS: −0.921

## O=C(O)CCC/C=C\CC1COC(C(F)(F)F)OC1c1ccccc1O (stereo not drawn)
C2C12 myotubes; [8]
  Viability: −0.413
[1]; [8]
  ΔΨm: −0.087
Cytochrome c; [8]
  cyt c: −0.437
mtOXPHOS transcripts; [8]
  mitoOX: 0.594
[2]; [8]
  MTT: −0.548
nuOXPHOS transcripts; [8]
  nucOX: 0.169
Reactive oxygen species; [8]
  ROS: 0.713
OXPHOS gene expression; [8]
  GE-HTS: 0.344

## C[C@H]1CC[C@]2(NC1)O[C@H]1C[C@H]3[C@@H]4CC[C@H]5C[C@@H](O[C@@H]6O[C@H](CO)[C@H](O[C@@H]7O[C@H](CO)[C@@H](O)[C@H](O[C@@H]8OC[C@@H](O)[C@H](O)[C@H]8O)[C@H]7O[C@@H]7O[C@H](CO)[C@@H](O)[C@H](O)[C@H]7O)[C@H](O)[C@H]6O)CC[C@]5(C)[C@H]4CC[C@]3(C)[C@H]1[C@@H]2C [tomatine]
C2C12 myotubes; [4]
  Viability: −4.793
[1]; [4]
  ΔΨm: −2.423
Cytochrome c; [4]
  cyt c: −3.979
mtOXPHOS transcripts; [4]
  mitoOX: −1.725
[2]; [4]
  MTT: −4.122
nuOXPHOS transcripts; [4]
  nucOX: −2.158
Reactive oxygen species; [4]
  ROS: −2.084
OXPHOS gene expression; [4]
  GE-HTS: −2.151

## COc1cc2c(cc1-c1coc3c4c(c(OC)cc3c1=O)OC(C)(C)C=C4)OCO2 [ichthynone, reference compound]
C2C12 myotubes; Conc 20 μM
  Viability (composite Z-score): 0.234
[1]; Conc 20 μM
  ΔΨm (composite Z-score): −0.325
Cytochrome c; Conc 20 μM
  cyt c (composite Z-score): 0.001
mtOXPHOS transcripts; Conc 20 μM
  mitoOX (composite Z-score): −0.466
[2]; Conc 20 μM
  MTT (composite Z-score): −0.681
nuOXPHOS transcripts; Conc 20 μM
  nucOX (composite Z-score): −0.088
Reactive oxygen species; Conc 20 μM
  ROS (composite Z-score): 1.842
OXPHOS gene expression; Conc 20 μM
  GE-HTS (composite Z-score): −0.217

## O[C@H]1[C@H](O)[C@@H](O)C2OC[C@H]1O2 [anhydroglucose]
C2C12 myotubes; [4]
  Viability: 0.168
[1]; [4]
  ΔΨm: −0.480
Cytochrome c; [4]
  cyt c: 0.688
mtOXPHOS transcripts; [4]
  mitoOX: −0.745
[2]; [4]
  MTT: 0.041
nuOXPHOS transcripts; [4]
  nucOX: 0.322
Reactive oxygen species; [4]
  ROS: 0.238
OXPHOS gene expression; [4]
  GE-HTS: −0.046

## COc1cc2ccc(=O)oc2c2ccoc12 [sphondin]
C2C12 myotubes; [3]
  Viability: −0.790
[1]; [3]
  ΔΨm: 0.136
Cytochrome c; [3]
  cyt c: 0.091
mtOXPHOS transcripts; [3]
  mitoOX: −0.666
[2]; [3]
  MTT: −0.661
nuOXPHOS transcripts; [3]
  nucOX: −0.605
Reactive oxygen species; [3]
  ROS: 1.692
OXPHOS gene expression; [3]
  GE-HTS: −0.684

## CCN(CC)CCNC(=O)c1cc(S(C)(=O)=O)ccc1OC [tiapride]
C2C12 myotubes; [9]
  Viability: −1.454
C2C12 myotubes; [6]
  Viability: 1.174
[1]; [9]
  ΔΨm: −0.800
[1]; [6]
  ΔΨm: 0.171
Cytochrome c; [9]
  cyt c: 0.917
Cytochrome c; [6]
  cyt c: −0.107
mtOXPHOS transcripts; [9]
  mitoOX: 0.086
mtOXPHOS transcripts; [6]
  mitoOX: −0.355
[2]; [9]
  MTT: −1.563
[2]; [6]
  MTT: −0.646
nuOXPHOS transcripts; [9]
  nucOX: 0.416
nuOXPHOS transcripts; [6]
  nucOX: −0.220
Reactive oxygen species; [9]
  ROS: 0.653
Reactive oxygen species; [6]
  ROS: −0.466
OXPHOS gene expression; [9]
  GE-HTS: 0.341
OXPHOS gene expression; [6]
  GE-HTS: −0.283

## C=CC1=C(C)/C(=C/c2[nH]c(Cc3[nH]c(/C=C4\NC(=O)C(C)=C4C=C)c(C)c3CCC(=O)O)c(CCC(=O)O)c2C)NC1=O [bilirubin]
C2C12 myotubes; Conc 20 μM
  Viability (composite Z-score): −0.649
[1]; Conc 20 μM
  ΔΨm (composite Z-score): −1.837
Cytochrome c; Conc 20 μM
  cyt c (composite Z-score): 1.004
mtOXPHOS transcripts; Conc 20 μM
  mitoOX (composite Z-score): 0.427
[2]; Conc 20 μM
  MTT (composite Z-score): −1.287
nuOXPHOS transcripts; Conc 20 μM
  nucOX (composite Z-score): 0.250
Reactive oxygen species; Conc 20 μM
  ROS (composite Z-score): 0.249
OXPHOS gene expression; Conc 20 μM
  GE-HTS (composite Z-score): 0.312

## COc1ccc(-c2cc(=O)c3c(O)cc(O)cc3o2)cc1O [diosmetin]
C2C12 myotubes; [7]
  Viability: 0.174
[1]; [7]
  ΔΨm: −2.701
Cytochrome c; [7]
  cyt c: −0.666
mtOXPHOS transcripts; [7]
  mitoOX: −0.134
[2]; [7]
  MTT: −1.922
nuOXPHOS transcripts; [7]
  nucOX: −1.158
Reactive oxygen species; [7]
  ROS: −0.014
OXPHOS gene expression; [7]
  GE-HTS: −0.892

## COC(=O)[C@H](c1ccccc1Cl)N1CCc2sccc2C1 [clopidogrel]
C2C12 myotubes
  Viability: −1.134
[1]
  ΔΨm: −0.698
Cytochrome c
  cyt c: 0.410
mtOXPHOS transcripts
  mitoOX: −1.441
[2]
  MTT: −1.447
nuOXPHOS transcripts
  nucOX: −1.328
Reactive oxygen species
  ROS: −0.196
OXPHOS gene expression
  GE-HTS: −1.470

## CC[C@H]1OC(=O)[C@H](C)[C@@H](O[C@H]2C[C@@](C)(OC)[C@@H](O)[C@H](C)O2)[C@H](C)[C@@H](O[C@@H]2O[C@H](C)C[C@H](N(C)C)[C@H]2O)[C@](C)(OC)C[C@@H](C)C(=O)[C@H](C)[C@@H](O)[C@]1(C)O [clarithromycin]
C2C12 myotubes; [4]
  Viability: −0.763
[1]; [4]
  ΔΨm: 0.434
Cytochrome c; [4]
  cyt c: −1.095
mtOXPHOS transcripts; [4]
  mitoOX: −1.928
[2]; [4]
  MTT: −1.086
nuOXPHOS transcripts; [4]
  nucOX: −2.046
Reactive oxygen species; [4]
  ROS: 0.293
OXPHOS gene expression; [4]
  GE-HTS: −2.161

## CC[C@@H](C)C(=O)O[C@H]1[C@H](O)[C@H]2[C@@H](CN3C[C@@H](C)CC[C@H]3[C@@]2(C)O)[C@@H]2C[C@]34O[C@]5(O)[C@@H](OC(=O)[C@@](C)(O)CC)CC[C@@]3(C)[C@@H]5[C@@H](OC(C)=O)[C@@H](OC(C)=O)[C@H]4[C@@]21O [protoveratrine A]
C2C12 myotubes; [4]
  Viability: 0.243
[1]; [4]
  ΔΨm: 0.394
Cytochrome c; [4]
  cyt c: 1.155
mtOXPHOS transcripts; [4]
  mitoOX: −1.108
[2]; [4]
  MTT: −0.100
nuOXPHOS transcripts; [4]
  nucOX: −0.978
Reactive oxygen species; [4]
  ROS: −0.267
OXPHOS gene expression; [4]
  GE-HTS: −1.106

## CC(=O)[C@H]1CC[C@H]2[C@@H]3CCC4C[C@H](O)CC[C@]4(C)[C@H]3C[C@H](O)[C@]12C (stereo partly drawn) [dihydroxy (3alpha,12alpha)pregnan-20-one]
C2C12 myotubes; [3]
  Viability: −0.622
[1]; [3]
  ΔΨm: −0.540
Cytochrome c; [3]
  cyt c: −0.685
mtOXPHOS transcripts; [3]
  mitoOX: −0.621
[2]; [3]
  MTT: −1.160
nuOXPHOS transcripts; [3]
  nucOX: −0.972
Reactive oxygen species; [3]
  ROS: 0.206
OXPHOS gene expression; [3]
  GE-HTS: −0.928
